Experiment: in vitro
Conditions: human, hela cells, % viability

SMILES | viability at 28.5 h, 10 µM [%]
COc1ccc(Nc2nnc(-c3ccc(C(N)=O)cc3)c3ccccc23)cc1 [CBK264246] | 92.7
O=C1CCC(=O)N1CCOc1nccnc1OC1CCN(Cc2ccccc2-c2ccccc2)CC1 [CBK084344] | 110
Oc1nccc(Oc2ccnc(Cl)n2)n1 [CBK000010] | 98.5
Cc1c(C(=O)NCCN2CCC(C)CC2)oc2c1C(O)CC(C)(C)C2 (stereo not drawn) [CBK282100] | 87.1
Cc1oc2c(c1C(=O)NCC(=O)NCC(=O)O)CCCC2 [CBK264015] | 97.6
Cc1ccc(C(=O)C2=C(O)C(=O)N(Cc3cccnc3)C2c2cccc(Oc3ccccc3)c2)o1 (stereo not drawn) [CBK264619] | 96.3
N[C@@H](Cc1c[nH]c2ccccc12)C(=O)N1CC[C@H]2NC(=O)[C@@H](Cc3ccccc3)NC(=O)C3(C/C=C/C[C@@H]2C1)CCOCC3 [CBK292202] | 115
Cc1nc2c(C(=O)NCCC3OCCO3)cnn2c(C)c1Cc1cccnc1 [CBK162159] | 108
COc1ccnc(N2CCCN(CCc3ccc(OC)c(OC)c3)CC2)n1 [CBK084002] | 85
COc1ccc(OC)c(NC(=S)NCCN2CCOCC2)c1 [CBK264927] | 96.9
O=C(CN1CCOCC1)NC1(c2ccccc2)CCCCC1 [CBK059545C] | 85.6
COc1ccc2sc(C)nc2c1 [CBK028488] | 101
Cc1nc(COc2ccc(F)cc2)sc1C(=O)O [CBK305074] | 98
COCCNC(=O)c1cc(-c2ccc(C)cc2)nc2c1cnn2C(C)C [CBK305033] | 93.8
O=C(O)c1cc(-n2c(S)nnc2-c2ccc3ccccc3n2)ccc1Cl [CBK269512] | 86.1
Cc1ccc(-c2cc(C(=O)NCc3cccnc3)c3ccccc3n2)cc1C [CBK265402] | 97.5
COc1cccc(Cn2c(=O)c3sccc3n(CC(=O)NCc3ccc(C)cc3)c2=O)c1 [CBK300533] | 80.8
Cc1ccc(N2C(=O)CSC2c2ccc(Cl)cc2Cl)cc1 (stereo not drawn) [CBK025673] | 105
COc1ccc([C@]23CN(C)C[C@H]2CCN(C(=O)Nc2cccc(Br)c2)C3)cc1OC [CBK075106T] | 105
c1csc(N2CCCN(c3nccn4cnnc34)CC2)n1 [CBK305190] | 82.4
Cc1cccnc1C(NC(=O)C1CCN(CCCN2C(=O)CC3CCCCC3C2=O)CC1)c1ccc(F)cc1 (stereo not drawn) [CBK147910] | 91.2

SMILES | viability at 28.5 h, 10 µM [%]
CCS(=O)(=O)CCNC(=O)c1cnc(N2CCCCC2)nc1C [CBK307715] | 82.9
CNC(=O)CC1SC(NC2CC3C=CC2C3)=NC1=O (stereo not drawn) [CBK047491] | 90.7
Cc1ccc(OC(C)C(=O)Nc2ccccc2C(=O)N2CCN(C)CC2)cc1 (stereo not drawn) [CBK269802] | 88.6
COC(=O)Cn1c(CN2CCN(c3ccccc3F)CC2)nc2c1c(=O)n(C)c(=O)n2C [CBK269444] | 93.1
CCCc1cc(=O)[nH]c(Nc2ccc(OCC)cc2)n1 [CBK288140] | 112
CN(C)S(=O)(=O)NCCc1ccc(S(N)(=O)=O)cc1 [CBK022388] | 99.5
CS(=O)(=O)N(CC(=O)Nc1ccccc1C(=O)N1CCOCC1)c1ccc(F)c(Cl)c1 [CBK267931] | 98.1
CC(=O)c1cc2c(cc1NC(=O)CSc1nc3ccccc3[nH]1)OCO2 [CBK266110] | 69.8
NC(=O)c1c(NC(=O)COc2ccc3ccccc3c2)sc2c1CCCCC2 [CBK265380] | 112
O=C(Nc1ccccc1C(F)(F)F)NC1CC2CCCC(C1)N2C1CC1 (stereo not drawn) [CBK143578] | 103
CC(C)N(Cc1cnn(C)c1)C(=O)c1cc(C2CC2)nc2ccccc12 [CBK305325] | 103
CN(C)S(=O)(=O)N(CC(=O)Nc1ccc2c(c1)OCO2)c1ccccc1 [CBK268481] | 110
O=C(NC(Nc1ncccn1)C(Cl)(Cl)Cl)c1ccccc1 (stereo not drawn) [CBK261408] | 107
O=C(c1cccc(NS(=O)(=O)Cc2ccccc2)c1)N1CCOCC1 [CBK038991] | 91
Clc1cc(N[C@@H]2CCN(Cc3ccccc3)C2)n2nccc2n1 [CBK037069] | 92.3
O=C1CO[C@H]2CN(Cc3ncc[nH]3)C[C@H]2N1Cc1ccncc1 [CBK289259] | 108
O=C(CC(C(=O)O)C1CCCO1)Nc1ccc(Cl)cc1Cl (stereo not drawn) [CBK261509] | 86.2
O=C(Nc1cccc2cccnc12)c1sc2ccccc2c1Cl [CBK262132] | 98.8
c1ccc(Cn2cc(-c3cnc(N4CCOCC4)c4nccn34)cn2)cc1 [CBK091289] | 79.7
COc1ccc2c(c1)C(C[C@H]1CN(C(=O)C3CC3)CC[C@H]1CC(=O)O)=NCC2 [CBK289157] | 85.7
O=C(NCCO)c1ccc(CSc2nc3sc4c(c3c(=O)[nH]2)CCCC4)cc1 [CBK263522] | 96.6

SMILES | viability at 28.5 h, 10 µM [%]
CCCC/C=C/c1nccnc1N[C@@H](C)c1ccccc1 [CBK037138] | 84.7
COC(=O)[C@@H]1Cc2ncn(C(C)C)c2CN1C(=O)c1ccccc1 [CBK288987] | 82.2
Cc1cc2nc(NCC3CCCO3)c3ccccc3n2n1 (stereo not drawn) [CBK305871] | 99.6
O=C1CCN([C@H]2C[C@@H](O)[C@@H](CO)O2)C(=O)N1 [CBK201288] | 93.8
Cc1onc(-c2ccccc2Cl)c1C(=O)N(Cc1nc(-c2ccccc2)no1)C1CCCCC1 [CBK268790] | 108
COc1cc(CN2CCNCC2)c2ccn(S(=O)(=O)c3ccccc3C#N)c2c1 [CBK144486T] | 89.4
Oc1ccccc1Nc1nc(NC2CCCC2)c2ccccc2n1 [CBK268402C] | 84.8
Nc1nonc1C(=O)NCCNCc1ccc(Cl)cc1 [CBK267194] | 101
Cc1cnc2n(c1=O)C(CC(=O)NCc1ccncc1)CS2 (stereo not drawn) [CBK287671] | 111
CCC1CCc2c(sc(NC(=O)C3C4CCC(C4=C(C)C)C3C(=O)O)c2C(=O)OC)C1 (stereo not drawn) [CBK265424] | 102
CN(CCc1ccccn1)Cc1cc(Br)cs1 [CBK021314] | 92.8
Cc1c(Cl)cccc1NC(=O)CSc1nnc(Cc2cccc3ccccc23)n1-c1ccccc1 [CBK266042] | 98.7
O=S(=O)(NCc1cccc(F)c1F)c1cc2c(N3CCNCC3)nccc2s1 [CBK047588C] | 103
O=C(O)CCC(=O)N1CC[C@H]2NC(=O)N(c3ccc(F)cc3)C(=O)[C@H]21 [CBK289329] | 103
CC(=O)NCCc1nc2ccccc2n1CCOc1ccc(Cl)cc1 [CBK269610] | 107
COCOc1ccc(-c2nc(-c3cccnc3)cnc2N)cc1 [CBK063999] | 93.6
O=C(NC(c1ccc(Cl)cc1)c1cnccn1)C1CCN(Cc2ccc(Oc3ccccc3)cc2)CC1 (stereo not drawn) [CBK148023] | 108
CS(=O)(=O)c1sc(C(=O)NC(=S)Nc2cccc(C(F)(F)F)c2)c2c1C=CCC2 [CBK005654] | 96.9
CCc1nn(CC(=O)N(CC)CC)c(=O)c2cc3oc(C)cc3n12 [CBK283583] | 99.5
c1ccc2nc(N3CCCC3)c(OC3CCNC3)nc2c1 (stereo not drawn) [CBK115288] | 99.9

Same assay, conditions: human, hela cells, % viability, bulk resorufin, single well

SMILES | viability at 28.5 h, 10 µM [%]
CCOC(=O)C1(c2ccccc2)CCN(C(=O)c2ccc(S(N)(=O)=O)cc2)CC1 [CBK132200] | 99.7
